Experimental data taken from BigSolDB 2.1.

COc1cc([N+](=O)[O-])ccc1N
solubility (mole fraction)
Details | 278.15 K | 283.15 K | 288.15 K | 293.15 K | 298.15 K | 303.15 K | 308.15 K | 313.15 K | 318.15 K | 323.15 K
in 1,4-dioxane | – | – | 0.0402 | 0.0468 | 0.0556 | 0.0652 | 0.0775 | 0.0925 | 0.111 | 0.133
in DMSO | – | – | – | 0.235 | 0.249 | 0.264 | 0.281 | 0.3 | 0.321 | 0.344
in NMP | 0.256 | 0.272 | 0.287 | 0.303 | 0.321 | 0.339 | 0.359 | 0.38 | 0.402 | 0.426
in acetonitrile | 0.0118 | 0.0141 | 0.0175 | 0.0213 | 0.0269 | 0.0345 | 0.0433 | 0.0547 | 0.0683 | 0.0872
in ethanol | 0.00263 | 0.00307 | 0.00363 | 0.00438 | 0.00534 | 0.00636 | 0.0078 | 0.00978 | 0.0121 | 0.015
in ethyl acetate | 0.0186 | 0.0227 | 0.0269 | 0.0326 | 0.0398 | 0.0486 | 0.0596 | 0.0716 | 0.0854 | 0.103
in ethylene glycol | 0.0017 | 0.00201 | 0.00243 | 0.00284 | 0.00345 | 0.00424 | 0.00527 | 0.00643 | 0.00796 | 0.00973
in methanol | 0.00238 | 0.0028 | 0.00333 | 0.00392 | 0.00466 | 0.00565 | 0.00682 | 0.00844 | 0.0104 | 0.0129
in n-butanol | 0.00135 | 0.00166 | 0.00202 | 0.00248 | 0.00304 | 0.00371 | 0.00457 | 0.0057 | 0.0072 | 0.00886
in n-propanol | 0.00199 | 0.00239 | 0.0029 | 0.0035 | 0.00423 | 0.00512 | 0.00616 | 0.00738 | 0.00876 | 0.0104
in water | 4e-06 | 6e-06 | 7e-06 | 9e-06 | 1.3e-05 | 1.7e-05 | 2.4e-05 | 3.2e-05 | 4.2e-05 | 5.5e-05
